Activity calls are given as the source filed them. Cut-off read from the data, not from the text of the source, for most assays here: actives have a measured Kd and inactives only a lower limit.
Assays:
[1] = target: T1, Ribosyldihydronicotinamide dehydrogenase [quinone] (Homo sapiens, UniProt P16083)
T1 sequence (P16083 whole entry): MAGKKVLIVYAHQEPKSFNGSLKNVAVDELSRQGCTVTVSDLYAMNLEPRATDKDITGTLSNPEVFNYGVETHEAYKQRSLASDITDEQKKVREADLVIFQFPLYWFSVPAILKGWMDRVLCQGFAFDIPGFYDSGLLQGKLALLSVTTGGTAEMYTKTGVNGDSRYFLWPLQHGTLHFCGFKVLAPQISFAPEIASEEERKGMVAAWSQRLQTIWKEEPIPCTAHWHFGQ

[2] = target: Protein-tyrosine kinase 2-beta (Homo sapiens, UniProt Q14289)
Chain of Protein-tyrosine kinase 2-beta (Q14289 whole entry): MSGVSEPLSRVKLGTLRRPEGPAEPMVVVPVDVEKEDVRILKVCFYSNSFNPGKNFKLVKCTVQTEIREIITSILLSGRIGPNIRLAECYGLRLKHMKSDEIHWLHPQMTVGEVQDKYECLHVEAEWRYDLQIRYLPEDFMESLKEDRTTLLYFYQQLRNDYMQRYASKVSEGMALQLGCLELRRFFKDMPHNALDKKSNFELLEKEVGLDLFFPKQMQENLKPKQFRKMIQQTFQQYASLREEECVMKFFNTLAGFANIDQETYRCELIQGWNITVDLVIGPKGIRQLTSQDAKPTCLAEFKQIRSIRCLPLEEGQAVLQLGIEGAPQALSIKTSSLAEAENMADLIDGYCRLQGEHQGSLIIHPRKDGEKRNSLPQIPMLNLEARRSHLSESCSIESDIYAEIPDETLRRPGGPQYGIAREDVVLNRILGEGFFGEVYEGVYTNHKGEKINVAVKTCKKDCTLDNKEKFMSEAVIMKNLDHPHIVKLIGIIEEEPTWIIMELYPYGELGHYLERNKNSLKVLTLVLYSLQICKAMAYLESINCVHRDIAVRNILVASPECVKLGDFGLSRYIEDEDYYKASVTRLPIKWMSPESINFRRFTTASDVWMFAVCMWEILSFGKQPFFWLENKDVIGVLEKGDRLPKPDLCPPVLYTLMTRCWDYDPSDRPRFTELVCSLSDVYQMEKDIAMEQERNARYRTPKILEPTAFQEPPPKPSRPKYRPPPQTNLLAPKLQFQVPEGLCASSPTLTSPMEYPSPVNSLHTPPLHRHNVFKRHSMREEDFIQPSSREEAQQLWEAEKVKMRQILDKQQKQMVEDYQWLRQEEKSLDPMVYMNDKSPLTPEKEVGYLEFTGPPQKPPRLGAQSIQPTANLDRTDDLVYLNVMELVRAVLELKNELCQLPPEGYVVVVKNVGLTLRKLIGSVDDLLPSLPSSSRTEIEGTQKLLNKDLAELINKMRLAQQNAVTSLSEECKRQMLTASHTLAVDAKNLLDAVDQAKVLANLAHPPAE

[3] = target: Cyclin-dependent kinase 12 (Homo sapiens, UniProt Q9NYV4)
Chain of Cyclin-dependent kinase 12 (Q9NYV4 whole entry): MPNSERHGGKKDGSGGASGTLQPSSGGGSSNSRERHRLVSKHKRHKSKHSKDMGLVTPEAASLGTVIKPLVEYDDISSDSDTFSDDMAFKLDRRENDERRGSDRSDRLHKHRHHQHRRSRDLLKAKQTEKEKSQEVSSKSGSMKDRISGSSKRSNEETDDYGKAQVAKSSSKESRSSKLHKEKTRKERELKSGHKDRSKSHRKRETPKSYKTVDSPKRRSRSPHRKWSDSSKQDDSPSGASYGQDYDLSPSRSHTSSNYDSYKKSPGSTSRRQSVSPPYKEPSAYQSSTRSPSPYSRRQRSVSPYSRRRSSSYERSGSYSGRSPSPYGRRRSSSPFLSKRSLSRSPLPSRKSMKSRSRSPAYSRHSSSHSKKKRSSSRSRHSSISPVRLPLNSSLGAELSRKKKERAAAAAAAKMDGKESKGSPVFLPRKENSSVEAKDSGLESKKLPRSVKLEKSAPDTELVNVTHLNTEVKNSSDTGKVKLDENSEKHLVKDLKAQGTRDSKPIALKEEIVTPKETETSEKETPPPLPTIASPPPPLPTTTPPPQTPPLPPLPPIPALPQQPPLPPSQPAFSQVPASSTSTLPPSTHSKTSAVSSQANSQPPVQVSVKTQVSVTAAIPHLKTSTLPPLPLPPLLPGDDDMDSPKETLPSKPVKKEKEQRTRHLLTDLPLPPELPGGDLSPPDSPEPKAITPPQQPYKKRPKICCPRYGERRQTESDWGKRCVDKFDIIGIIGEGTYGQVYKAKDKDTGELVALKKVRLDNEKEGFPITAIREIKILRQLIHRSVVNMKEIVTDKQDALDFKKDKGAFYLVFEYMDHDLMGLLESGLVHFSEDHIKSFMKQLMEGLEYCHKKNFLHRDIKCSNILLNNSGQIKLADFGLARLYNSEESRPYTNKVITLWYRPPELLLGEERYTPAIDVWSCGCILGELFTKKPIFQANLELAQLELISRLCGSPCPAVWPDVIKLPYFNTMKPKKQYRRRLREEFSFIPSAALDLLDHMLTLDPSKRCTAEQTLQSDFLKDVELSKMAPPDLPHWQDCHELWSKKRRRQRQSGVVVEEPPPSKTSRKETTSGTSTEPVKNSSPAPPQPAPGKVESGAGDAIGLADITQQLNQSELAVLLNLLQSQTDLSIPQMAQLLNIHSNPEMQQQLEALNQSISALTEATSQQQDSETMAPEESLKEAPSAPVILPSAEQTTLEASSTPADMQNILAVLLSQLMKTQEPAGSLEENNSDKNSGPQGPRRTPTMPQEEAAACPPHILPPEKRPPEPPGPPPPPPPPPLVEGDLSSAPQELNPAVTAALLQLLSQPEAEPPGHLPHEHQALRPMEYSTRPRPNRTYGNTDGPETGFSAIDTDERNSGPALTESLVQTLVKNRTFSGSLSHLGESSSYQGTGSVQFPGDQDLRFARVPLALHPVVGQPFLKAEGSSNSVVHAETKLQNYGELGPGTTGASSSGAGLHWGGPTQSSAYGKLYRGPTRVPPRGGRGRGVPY

[4] = target: Tyrosine-protein kinase Fer (Homo sapiens, UniProt P16591)
[5] = target: T2, Very long-chain specific acyl-CoA dehydrogenase, mitochondrial (Homo sapiens, UniProt P49748)
T2 sequence (P49748 whole entry): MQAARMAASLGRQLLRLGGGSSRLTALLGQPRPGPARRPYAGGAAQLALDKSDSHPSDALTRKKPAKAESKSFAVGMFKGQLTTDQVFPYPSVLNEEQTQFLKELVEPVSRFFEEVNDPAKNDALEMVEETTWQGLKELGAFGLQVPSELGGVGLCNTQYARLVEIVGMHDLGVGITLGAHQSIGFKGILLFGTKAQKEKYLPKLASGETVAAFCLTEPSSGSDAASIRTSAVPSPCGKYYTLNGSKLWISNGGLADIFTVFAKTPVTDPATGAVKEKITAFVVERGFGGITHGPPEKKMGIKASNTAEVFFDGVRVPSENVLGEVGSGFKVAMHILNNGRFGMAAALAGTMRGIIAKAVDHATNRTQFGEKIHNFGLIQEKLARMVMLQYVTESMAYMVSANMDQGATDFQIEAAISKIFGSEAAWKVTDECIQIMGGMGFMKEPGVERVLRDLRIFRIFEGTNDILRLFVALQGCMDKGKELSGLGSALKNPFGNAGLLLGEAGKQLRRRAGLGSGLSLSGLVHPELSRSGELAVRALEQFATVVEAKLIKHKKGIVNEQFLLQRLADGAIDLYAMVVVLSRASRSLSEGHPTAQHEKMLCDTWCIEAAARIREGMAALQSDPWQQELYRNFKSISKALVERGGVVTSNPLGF

[6] = target: T3, Acyl-CoA dehydrogenase family member 10 (Homo sapiens, UniProt Q6JQN1)
T3 sequence (Q6JQN1 whole entry): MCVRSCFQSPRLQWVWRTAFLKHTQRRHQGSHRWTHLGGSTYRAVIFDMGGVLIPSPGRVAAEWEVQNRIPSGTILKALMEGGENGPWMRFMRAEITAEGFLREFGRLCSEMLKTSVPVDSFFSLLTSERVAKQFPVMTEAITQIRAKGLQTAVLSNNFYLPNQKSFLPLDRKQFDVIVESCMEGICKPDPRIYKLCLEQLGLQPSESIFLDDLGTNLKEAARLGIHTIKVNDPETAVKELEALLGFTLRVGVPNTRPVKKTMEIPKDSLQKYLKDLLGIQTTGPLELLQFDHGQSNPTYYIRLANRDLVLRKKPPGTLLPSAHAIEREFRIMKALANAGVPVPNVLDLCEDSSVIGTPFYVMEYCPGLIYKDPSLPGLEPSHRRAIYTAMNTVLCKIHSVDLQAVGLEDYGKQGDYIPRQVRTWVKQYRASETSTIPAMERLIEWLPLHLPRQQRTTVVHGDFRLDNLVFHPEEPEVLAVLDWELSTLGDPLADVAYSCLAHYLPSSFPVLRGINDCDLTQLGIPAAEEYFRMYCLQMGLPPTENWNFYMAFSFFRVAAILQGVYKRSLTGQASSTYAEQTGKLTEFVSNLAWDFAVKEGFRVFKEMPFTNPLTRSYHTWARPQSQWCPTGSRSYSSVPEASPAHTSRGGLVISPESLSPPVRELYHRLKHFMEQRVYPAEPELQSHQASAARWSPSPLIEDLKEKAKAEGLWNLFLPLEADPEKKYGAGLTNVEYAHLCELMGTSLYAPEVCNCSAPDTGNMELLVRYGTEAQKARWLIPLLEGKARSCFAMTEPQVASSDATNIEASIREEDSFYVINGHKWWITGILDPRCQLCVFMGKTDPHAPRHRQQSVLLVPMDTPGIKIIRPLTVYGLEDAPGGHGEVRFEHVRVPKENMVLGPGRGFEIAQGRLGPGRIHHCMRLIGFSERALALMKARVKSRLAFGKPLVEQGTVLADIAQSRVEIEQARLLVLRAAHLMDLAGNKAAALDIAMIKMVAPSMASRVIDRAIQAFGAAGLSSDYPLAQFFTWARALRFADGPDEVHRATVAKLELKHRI

[7] = target: Proto-oncogene tyrosine-protein kinase receptor Ret (Homo sapiens, UniProt P07949)
Chain of Proto-oncogene tyrosine-protein kinase receptor Ret (P07949 whole entry): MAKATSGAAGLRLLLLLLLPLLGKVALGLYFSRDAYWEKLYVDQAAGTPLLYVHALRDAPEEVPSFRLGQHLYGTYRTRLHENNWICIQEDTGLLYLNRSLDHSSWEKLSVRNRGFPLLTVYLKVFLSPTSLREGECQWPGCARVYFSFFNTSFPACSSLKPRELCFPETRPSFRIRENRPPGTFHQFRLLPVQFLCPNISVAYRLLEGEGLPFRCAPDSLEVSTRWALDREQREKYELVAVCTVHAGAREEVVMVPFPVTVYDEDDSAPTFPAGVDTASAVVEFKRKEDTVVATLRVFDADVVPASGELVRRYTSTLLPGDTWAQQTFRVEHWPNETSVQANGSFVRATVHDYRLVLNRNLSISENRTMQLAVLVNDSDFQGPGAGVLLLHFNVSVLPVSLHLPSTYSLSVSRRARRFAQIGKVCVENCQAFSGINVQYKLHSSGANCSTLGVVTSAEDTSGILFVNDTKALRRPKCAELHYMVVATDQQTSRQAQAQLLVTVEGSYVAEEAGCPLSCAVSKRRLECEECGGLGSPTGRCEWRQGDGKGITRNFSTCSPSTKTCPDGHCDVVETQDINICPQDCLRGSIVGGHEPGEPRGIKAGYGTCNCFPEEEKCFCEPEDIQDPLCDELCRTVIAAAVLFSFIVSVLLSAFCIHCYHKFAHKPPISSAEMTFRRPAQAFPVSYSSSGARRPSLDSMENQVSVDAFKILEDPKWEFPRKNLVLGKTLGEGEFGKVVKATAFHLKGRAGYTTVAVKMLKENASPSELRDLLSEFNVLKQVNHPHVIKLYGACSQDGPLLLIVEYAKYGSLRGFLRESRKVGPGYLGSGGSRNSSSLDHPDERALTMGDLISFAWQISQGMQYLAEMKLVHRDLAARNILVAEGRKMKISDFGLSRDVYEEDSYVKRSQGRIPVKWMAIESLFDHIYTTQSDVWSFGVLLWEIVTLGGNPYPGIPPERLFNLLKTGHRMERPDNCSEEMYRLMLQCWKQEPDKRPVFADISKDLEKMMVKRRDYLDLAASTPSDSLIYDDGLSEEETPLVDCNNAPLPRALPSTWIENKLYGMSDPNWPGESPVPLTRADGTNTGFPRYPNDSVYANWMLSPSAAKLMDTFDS

[8] = target: Tyrosine-protein kinase JAK1 (Homo sapiens, UniProt P23458)
Chain of Tyrosine-protein kinase JAK1 (P23458 whole entry): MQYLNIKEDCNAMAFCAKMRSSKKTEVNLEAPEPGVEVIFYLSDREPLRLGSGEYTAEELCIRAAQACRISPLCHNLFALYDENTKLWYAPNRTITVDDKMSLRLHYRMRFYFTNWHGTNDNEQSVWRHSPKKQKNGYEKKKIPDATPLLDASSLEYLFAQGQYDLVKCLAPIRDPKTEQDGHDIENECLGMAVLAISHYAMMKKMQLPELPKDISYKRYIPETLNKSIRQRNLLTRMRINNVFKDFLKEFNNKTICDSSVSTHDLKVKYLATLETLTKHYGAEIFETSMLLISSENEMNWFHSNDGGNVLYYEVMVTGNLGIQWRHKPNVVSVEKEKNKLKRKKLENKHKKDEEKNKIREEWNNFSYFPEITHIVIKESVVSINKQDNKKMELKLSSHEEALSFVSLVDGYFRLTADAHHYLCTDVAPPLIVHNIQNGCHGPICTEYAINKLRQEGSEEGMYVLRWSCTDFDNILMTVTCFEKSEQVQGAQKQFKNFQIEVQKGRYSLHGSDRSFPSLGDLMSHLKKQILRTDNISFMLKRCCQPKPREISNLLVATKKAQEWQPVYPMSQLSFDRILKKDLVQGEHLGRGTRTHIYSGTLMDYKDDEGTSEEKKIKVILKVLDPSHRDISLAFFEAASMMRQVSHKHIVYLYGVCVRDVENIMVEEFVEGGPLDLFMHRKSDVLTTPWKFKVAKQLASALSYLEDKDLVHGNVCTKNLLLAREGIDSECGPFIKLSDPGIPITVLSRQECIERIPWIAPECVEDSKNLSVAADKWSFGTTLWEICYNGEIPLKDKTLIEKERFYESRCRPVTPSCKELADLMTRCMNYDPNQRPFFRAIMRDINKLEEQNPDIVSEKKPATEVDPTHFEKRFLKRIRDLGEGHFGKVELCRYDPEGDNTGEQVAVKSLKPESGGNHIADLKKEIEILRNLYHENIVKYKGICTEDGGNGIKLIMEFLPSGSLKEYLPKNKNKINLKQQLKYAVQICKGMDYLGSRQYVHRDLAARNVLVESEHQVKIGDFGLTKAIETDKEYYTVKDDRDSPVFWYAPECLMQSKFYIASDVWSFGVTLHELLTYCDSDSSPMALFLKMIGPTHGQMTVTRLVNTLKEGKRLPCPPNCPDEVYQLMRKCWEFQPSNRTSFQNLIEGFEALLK

Focal adhesion kinase 1 = Focal adhesion kinase 1 (Homo sapiens, UniProt Q05397)
[9] = target: T4, Non-receptor tyrosine-protein kinase TNK1 (Homo sapiens, UniProt Q13470)
T4 sequence (Q13470 whole entry): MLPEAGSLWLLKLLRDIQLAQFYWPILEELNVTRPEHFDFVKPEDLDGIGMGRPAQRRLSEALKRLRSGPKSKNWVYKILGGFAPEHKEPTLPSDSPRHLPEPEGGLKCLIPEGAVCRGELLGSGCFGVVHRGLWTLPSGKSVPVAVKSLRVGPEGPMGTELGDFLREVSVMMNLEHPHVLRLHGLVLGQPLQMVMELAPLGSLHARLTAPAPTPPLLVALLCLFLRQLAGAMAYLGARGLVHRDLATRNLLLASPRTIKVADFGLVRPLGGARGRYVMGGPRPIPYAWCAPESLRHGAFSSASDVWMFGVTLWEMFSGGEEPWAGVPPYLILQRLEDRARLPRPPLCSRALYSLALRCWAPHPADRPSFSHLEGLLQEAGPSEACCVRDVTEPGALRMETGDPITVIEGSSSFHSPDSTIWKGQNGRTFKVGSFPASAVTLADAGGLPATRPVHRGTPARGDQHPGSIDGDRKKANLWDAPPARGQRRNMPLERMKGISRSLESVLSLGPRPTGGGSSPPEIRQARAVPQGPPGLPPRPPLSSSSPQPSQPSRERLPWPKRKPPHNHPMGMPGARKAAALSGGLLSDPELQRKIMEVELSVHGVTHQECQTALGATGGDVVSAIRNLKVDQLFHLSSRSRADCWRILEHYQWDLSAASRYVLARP
Note: in the data inactive means no Kd found up to 30 µM.

SMILES	Kd [1]	Kd [2]	Kd [3]	Kd [4]	Kd [5]	Kd [6]	Kd [7]	Kd [8]	Kd (Focal adhesion kinase 1)	Kd [9]
O=C(Nc1cc(C(F)(F)F)cc(C(F)(F)F)c1)c1cc(Cl)ccc1O [IMD-0354]	> 30 µM (inactive)	> 30 µM (inactive)	> 30 µM (inactive)	> 30 µM (inactive)	> 30 µM (inactive)	> 30 µM (inactive)	> 30 µM (inactive)	> 30 µM (inactive)	> 30 µM (inactive)	> 30 µM (inactive)
CNC(=O)c1cccc2cc(Oc3ccnc4cc(OCC5(N)CC5)c(OC)cc34)ccc12 [LUCITANIB]	> 30 µM (inactive)	> 30 µM (inactive)	> 30 µM (inactive)	> 30 µM (inactive)	> 30 µM (inactive)	> 30 µM (inactive)	0.005 µM (active)	> 30 µM (inactive)	> 30 µM (inactive)	> 30 µM (inactive)
CNC(=O)c1nn(C)c2c1C(C)(C)Cc1cnc(Nc3ccc(N4CCN(C)CC4)cc3)nc1-2 [MILCICLIB]	> 30 µM (inactive)	> 30 µM (inactive)	> 30 µM (inactive)	> 30 µM (inactive)	> 30 µM (inactive)	> 30 µM (inactive)	1.32 µM (active)	> 30 µM (inactive)	> 30 µM (inactive)	5.68 µM (active)
NC1(c2ccc(-c3nc4ccn5c(=O)[nH]nc5c4cc3-c3ccccc3)cc2)CCC1 [MK-2206]	> 30 µM (inactive)	> 30 µM (inactive)	> 30 µM (inactive)	> 30 µM (inactive)	> 30 µM (inactive)	> 30 µM (inactive)	> 30 µM (inactive)	> 30 µM (inactive)	> 30 µM (inactive)	> 30 µM (inactive)
Cn1cc(-c2cnc3ccc4ccc(CS(=O)(=O)NCc5ccccn5)cc4c(=O)c3c2)cn1 [MK-8033]	> 30 µM (inactive)	> 30 µM (inactive)	> 30 µM (inactive)	> 30 µM (inactive)	> 30 µM (inactive)	> 30 µM (inactive)	> 30 µM (inactive)	> 30 µM (inactive)	> 30 µM (inactive)	> 30 µM (inactive)
FC(F)(F)c1ccc(/C=C/c2nc(COc3ccc(CCCCn4ccnn4)cc3)co2)cc1 [MUBRITINIB]	> 30 µM (inactive)	> 30 µM (inactive)	> 30 µM (inactive)	> 30 µM (inactive)	> 30 µM (inactive)	> 30 µM (inactive)	> 30 µM (inactive)	> 30 µM (inactive)	> 30 µM (inactive)	> 30 µM (inactive)
CCCCCCCCCCCCCCCCCCOP(=O)([O-])OC1CC[N+](C)(C)CC1 [PERIFOSINE]	> 30 µM (inactive)	> 30 µM (inactive)	> 30 µM (inactive)	> 30 µM (inactive)	> 30 µM (inactive)	> 30 µM (inactive)	> 30 µM (inactive)	> 30 µM (inactive)	> 30 µM (inactive)	> 30 µM (inactive)
Cc1nc(Nc2n[nH]c3c2CN(C(=O)N[C@H](CN(C)C)c2ccccc2)C3(C)C)c2sccc2n1 [PF-03758309]	> 30 µM (inactive)	1.4 µM (active)	> 30 µM (inactive)	0.802 µM (active)	> 30 µM (inactive)	> 30 µM (inactive)	0.728 µM (active)	> 30 µM (inactive)	> 30 µM (inactive)	> 30 µM (inactive)
Cc1cnc(NC(=O)Nc2cc(Br)c(C)cc2OC[C@@H]2CNCCO2)cn1 [RABUSERTIB]	> 30 µM (inactive)	> 30 µM (inactive)	> 30 µM (inactive)	> 30 µM (inactive)	> 30 µM (inactive)	> 30 µM (inactive)	> 30 µM (inactive)	> 30 µM (inactive)	> 30 µM (inactive)	> 30 µM (inactive)

— ChEMBL document CHEMBL3991601, “The target landscape of clinical kinase drugs” (Science, 2017)
